Results reported in patent publication US11964960B2 (Cornell University, priority 2018, dated 2024).

Columns and labels:
S1PR2 [1] = target: T1, S1PR2 (Homo sapiens, UniProt O95136); settings: Bioorg. Med. Chem. 21: 5373-5382 (2013); cited from earlier work
Target sequence in this assay (O95136 whole entry): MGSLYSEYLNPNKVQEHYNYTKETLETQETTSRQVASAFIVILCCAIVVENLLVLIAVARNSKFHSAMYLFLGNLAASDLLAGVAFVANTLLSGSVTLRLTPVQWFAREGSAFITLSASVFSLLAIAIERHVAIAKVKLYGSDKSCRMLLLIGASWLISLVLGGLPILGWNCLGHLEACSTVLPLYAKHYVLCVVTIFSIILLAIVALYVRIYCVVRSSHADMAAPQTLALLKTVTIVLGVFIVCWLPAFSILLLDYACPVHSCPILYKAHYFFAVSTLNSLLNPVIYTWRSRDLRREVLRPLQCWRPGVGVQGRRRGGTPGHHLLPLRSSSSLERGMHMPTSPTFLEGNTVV

[2] = cited from earlier work
S1P2 = target: T2, S1P2 (Homo sapiens, UniProt O95136); experiment: GLISA RhoA activation - antagonist assay; format: cell-based; settings: CHO-S1P2-FL cells; for inhibition at 1 µM: 1 μM compound; for IC50: 1 hour compound incubation, then for 5 min
T2 construct: Flag; expressed in transfected cells; host or cells: Chinese hamster ovary (CHO) cells, doxycycline-inducible (CHO-S1P2-FL / CHO-S1PR2 FL)
Protocol: GLISA RhoA Activation—Antagonist Assay
GLISA assays were performed using RhoA (BK124) activation kit purchased from Cytoskeleton Inc., Denver, CO Doxycycline-inducible Flag-tag S1P2 expressing Chinese hamster ovary (CHO) cells (CHO-S1P2-FL) were seeded in a 6-well plate, 1.5×10^5 cells per well. Cells were stimulated with […] of Doxycycline to induce S1P2 expression in serum free IMDM media with 0.1% BSA/PBS. Following day, cells were stimulated with the compounds described herein (1 nM-10 μM) or 1 μM JTE-013 for 1 hour at 37° C. Following compound incubation, cells were washed with PBS×3 and induced with 100 nM […] for 5 min. […] Protein concentration was examined using GLISA—Precision Red Advanced Protein assay reagent as described in assay manual. Lysates were immobilized on GTP-bound capture plate and GLISA assay was performed based on manufacture recommendations as reported previously.

S1PR2 [3] = target: T1, S1PR2; experiment: FLIPR calcium activation - antagonist assay; format: cell-based; set-up: Flag; expressed in transfected cells; host or cells: Chinese hamster ovary (CHO) cells, doxycycline-inducible (CHO-S1P2-FL / CHO-S1PR2 FL); settings: CHO-S1PR2 FL cells, 1 hour compound incubation
Protocol: FLIPR Calcium Activation—Antagonist Assay
An assay was performed using Fluo-4 NW Calcium activation kit (#F36206) purchased from Molecular Probes/Life Technologies, Grand Island, NY. Calcium assay was performed according to the manufacturer's instructions. Briefly, CHO-S1PR2 FL cells (5×10^4 cells (for 384 well plate) or 7.5×10^4 cells (for 96 well plate)) were seeded 24 hours prior to experiment in serum free IMDM media supplemented with 0.1% fatty acid free BSA/PBS (SFM). After starvation, cells were stimulated with the compounds described herein (1 nM-10 μM) for 1 hour in SFM at room temperature. Cells were then washed with PBS and prepared for Calcium induction assay as instructed in Fluo-4 NW Calcium activation kit protocol. For calcium induction, 100 nM […] or 1 μM ATP were added in ligand plate places in the Hamamatsu FDSS6000 drug screening system. Ligand was added in 15 seconds intervals for 15 min and signal ratio of […] was measured using the Hamamatsu FDSS6000 instrument.
Target sequence in this assay (O95136 whole entry, species assumed): as the sequence (O95136 whole entry) above

bile duct ligated mice = experiment: Bile duct ligation (BDL) liver fibrosis model; format: in vivo, mouse; settings: 30 mg/kg daily
Protocol: Six to eight-week-old mice were subjected to bile duct ligation to induce mouse cirrhotic liver injury model. To perform BDL, mice were subjected to a mid-abdominal incision, under general anesthesia. The common bile duct was ligated in two adjacent positions approximately 1 cm from the porta hepatis. The duct was then severed by incision between the two sites of ligation. One day after surgery, mice were administered compounds described herein at […] once daily. Drug delivery was performed by gavage in 0.5% methylcellulose with 0.1 Tween 80. Eight days after BDL surgery mice were harvested, though the harvesting can be performed at any suitable period of time, including 14 days after BDL surgery. Blood serum was collected for liver enzyme analysis and livers were harvested and were either snap frozen or fixed with 4% PFA and cryopreserved in OCT for sectioning and immunohistochemical analysis.
To test whether the compounds described herein act as S1PR2 antagonists in vivo, their effect was tested in BDL, a clinically relevant liver cholestasis model. The common bile duct was ligated and resected as described herein to cause biliary epithelial damage. One day post-surgery, mice were treated daily with 30 mg/kg of compound 29 or JTE-013:
In this double-blind mouse BDL study, the compounds were administered orally by gavage. […]

S1PR2 [4] = target: T3, S1PR2 (Mus musculus, UniProt P52592); experiment: Immunoblot analysis of S1PR2 levels in liver tissue from mouse BDL study; format: in vivo; settings: 30 mg/kg daily, orally; liver at end of eight-day study (FIG. 3)
T3 construct: Liver tissues were collected at necropsy, flash frozen, and pulverized; from tissue; host or cells: mouse liver (bile duct ligation model)
Description: Liver tissues were collected at necropsy, flash frozen, and pulverized. The powder was resuspended in RIPA lysis buffer with PI, NAF, and sodium deoxy cholate.
Liver samples collected in an identical manner from S1PR2 global KO and WT mice served as positive controls.

[5] = system: BDL murine models of liver disease; settings: multiple studies (Wang 2017; Yang 2015); cited from earlier work
[6] = system: WT mice subjected to ischemia/reperfusion (I/R); settings: I/R (Kim 2015); cited from earlier work

T2 sequence (O95136 whole entry, species assumed): as the sequence (O95136 whole entry) above
T3 sequence (P52592 whole entry): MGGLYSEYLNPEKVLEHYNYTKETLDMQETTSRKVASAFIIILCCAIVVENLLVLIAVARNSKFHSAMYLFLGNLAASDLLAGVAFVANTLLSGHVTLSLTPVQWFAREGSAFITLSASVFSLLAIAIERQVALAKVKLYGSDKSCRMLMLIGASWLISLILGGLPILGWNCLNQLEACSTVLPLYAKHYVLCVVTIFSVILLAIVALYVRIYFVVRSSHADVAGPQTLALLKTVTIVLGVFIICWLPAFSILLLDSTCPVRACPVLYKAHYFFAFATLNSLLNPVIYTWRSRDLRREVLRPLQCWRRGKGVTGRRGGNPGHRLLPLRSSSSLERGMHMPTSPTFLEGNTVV

inhibition at 1 µM (S1P2) [%]	IC50 (S1P2) [nM]	IC50 (S1PR2 [3]) [nM]	Structure (SMILES)	also measured
67		395	Cc1cc(=O)n(CC(=O)c2cnn(Cc3ccccc3)c2C)cc1Br [Example 40, 1-(2-(1-Benzyl-5-methyl-1H-pyrazol-4-yl)-2-oxoethyl)-5-bromo-4-methylpyridin-2(1H)-one]	
63		694	COc1cc(Br)cn(CC(=O)c2cnn(Cc3ccccc3)c2C)c1=O [Example 41, 1-(2-(1-Benzyl-5-methyl-1H-pyrazol-4-yl)-2-oxoethyl)-5-bromo-3-methoxypyridin-2(1H)-one]	
64		567	C#Cc1cc(C)c(=O)n(CC(=O)c2cnn(Cc3ccccc3)c2C)c1 [Example 42, 1-(2-(1-Benzyl-5-methyl-1H-pyrazol-4-yl)-2-oxoethyl)-5-ethynyl-3-methylpyridin-2(1H)-one]	
70	200	297	C#Cc1ccc(=O)n(CC(=O)c2cnn(Cc3ccccc3)c2C)n1 [Example 43, 2-(2-(1-Benzyl-5-methyl-1H-pyrazol-4-yl)-2-oxoethyl)-6-ethynylpyridazin-3(2H)-one]	
	72		C#Cc1ccc(=O)n(CC(=O)c2nnn(Cc3ccccc3)c2C)c1 [Example 88, 1-(2-(1-Benzyl-5-methyl-1H-1,2,3-triazol-4-yl)-2-oxoethyl)-5-ethynylpyridin-2(1H)-one]	
	65		C=Cc1ccc(=O)n(CC(=O)c2nnn(Cc3ccccc3)c2C)c1 [Example 89, 1-(2-(1-Benzyl-5-methyl-1H-1,2,3-triazol-4-yl)-2-oxoethyl)-5-vinylpyridin-2(1H)-one]	
< 10			COC(=O)c1ccc(=O)n(CC(=O)c2cc(C)n(Cc3ccccc3)c2C)c1 [Example 90]	
12			Cc1cc(C(=O)Cn2cc(C#N)ccc2=O)c(C)n1CCc1ccccc1 [Example 91, 1-(2-(2,5-Dimethyl-1-phenethyl-1H-pyrrol-3-yl)-2-oxoethyl)-6-oxo-1,6-dihydropyridine-3-carbonitrile]	
31			Cc1cc(C(=O)Cn2cc(C#N)ccc2=O)c(C)n1C(C)c1ccccc1 (centres unmarked) [Example 92, 1-(2-(2,5-Dimethyl-1-(1-phenylethyl)-1H-pyrrol-3-yl)-2-oxoethyl)-6-oxo-1,6-dihydropyridine-3-carbonitrile]	
10			Cc1cc(C(=O)Cn2cc(C#N)ccc2=O)c(C)n1Cc1ccc2c(c1)OCO2 [Example 93, 1-(2-(1-(Benzo[d][1,3]dioxol-5-ylmethyl)-2,5-dimethyl-1H-pyrrol-3-yl)-2-oxoethyl)-6-oxo-1,6-dihydropyridine-3-carbonitrile]	

Second part, the compound before the results:

Structure (SMILES)	inhibition at 1 µM (S1P2) [%]	IC50 (S1P2) [nM]	IC50 (S1PR2 [3]) [nM]	also measured
Cc1cc(C(=O)Cn2cc(C#N)ccc2=O)c(C)n1Cc1ccccc1 [CYM-5520]				activity at the S1PR2 receptor (S1PR2 [1]): weak allosteric agonist; aqueous solubility [2]: poor aqueous solubility
Cc1cc(C(=O)Cn2cc(Br)ccc2=O)c(C)n1Cc1ccccc1 [Compound 1, 1-(2-(1-benzyl-2,5-dimethyl-1H-pyrrol-3-yl)-2-oxoethyl)-5-bromopyridin-2(1H)-one]	87	52	58	
C#Cc1ccc(=O)n(CC(=O)c2cc(C)n(Cc3ccccc3)c2C)c1 [Compound 3, 1-(2-(1-benzyl-2,5-dimethyl-1H-pyrrol-3-yl)-2-oxoethyl)-5-ethynylpyridin-2(1H)-one]	69	134	89	
Cc1c(C(=O)Cn2cc(Br)ccc2=O)cnn1Cc1ccccc1 [Compound 27, 1-(2-(1-benzyl-5-methyl-1H-pyrazol-4-yl)-2-oxoethyl)-5-bromopyridin-2(1H)-one]	92	4.9	11	
C#Cc1ccc(=O)n(CC(=O)c2cnn(Cc3ccccc3)c2C)c1 [Compound 29, 1-(2-(1-benzyl-5-methyl-1H-pyrazol-4-yl)-2-oxoethyl)-5-ethynylpyridin-2(1H)-one]	79	69	23	
Cc1c(C(=O)Cn2cc(Br)ccc2=O)cnn1Cc1cccc(C(=O)O)c1 [Compound 32, 3-((4-(2-(5-bromo-2-oxopyridin-1(2H)-yl)acetyl)-5-methyl-1H-pyrazol-1-yl)methyl)benzoic acid]	< 10		8700	
Cc1c(C(=O)Cn2cc(Br)ccc2=O)cnn1Cc1cccnc1 [Compound 33, 5-bromo-1-(2-(5-methyl-1-(pyridin-3-ylmethyl)-1H-pyrazol-4-yl)-2-oxoethyl)pyridin-2(1H)-one]	14		5600	
C=Cc1ccc(=O)n(CC(=O)c2cnn(Cc3ccccc3)c2C)c1 [Compound 34, 1-(2-(1-benzyl-5-methyl-1H-pyrazol-4-yi)-2-oxoethyl)-5-vinylpyridin-2(1H)-one]	79	82	150	
C#Cc1ccc(=O)n(CC(=O)c2cnn(Cc3cccnc3)c2C)c1 [Compound 35, 5-ethynyl-1-(2-(5-methyl-1-(pyridin-3-ylmethyl)-1H-pyrazol-4-yl)-2-oxoethyl)pyridin-2(1H)-one]	69		386	
C#Cc1ccc(=O)n(CC(=O)c2cnn(Cc3cccc(C(=O)O)c3)c2C)c1 [Example 36, 3-((4-(2-(5-Ethynyl-2-oxopyridin-1(2H)-yl)acetyl)-5-methyl-1H-pyrazol-1-yl)methyl)benzoic Acid]	< 10		9800	
Cc1c(C(=O)Cn2ccc(Br)cc2=O)cnn1Cc1ccccc1 [Example 37, 1-(2-(1-Benzyl-5-methyl-1H-pyrazol-4-yl)-2-oxoethyl)-4-bromopyridin-2(1H)-one]	15		4400	
C#Cc1ccn(CC(=O)c2cnn(Cc3ccccc3)c2C)c(=O)c1 [Example 38]	17		3600	
Cc1cc(Br)cn(CC(=O)c2cnn(Cc3ccccc3)c2C)c1=O [Example 39, 1-(2-(1-Benzyl-5-methyl-1H-pyrazol-4-yl)-2-oxoethyl)-5-bromo-3-methylpyridin-2(1H)-one]	69		364	
Cc1nn(C)c2nc(NNC(=O)Nc3cc(Cl)nc(Cl)c3)cc(C(C)C)c12 [JTE-013]				serum ALB levels (bile duct ligated mice; orally by gavage (FIG. 2C)): remained constant; survival / mortality post bile duct ligation (bile duct ligated mice; orally by gavage, from one day post-surgery, eight-day study (FIG. 1A)): lower than that observed for the vehicle arm; S1PR2 levels in liver (immunoblot) (S1PR2 [4]): visible; liver injury [5]: protect against liver injury; edema ratio [6]: dramatic decrease; infarct ratio [6]: dramatic decrease; neurological scores [6]: improved
